Measurements as given in patent publication US9346832B2, “Gold complexes for use in the treatment of cancer” (University of Kwazulu-Natal, priority 2010, dated 2016).
Read-outs that look alike come from different tables or passages of the source. One block for each compound: values may come before it.

Experiments:
in vitro = conditions: human
Excerpt: The Caco-2 data are especially important as many drugs fail due to poor membrane transport/absorption.

topoisomerase II = topoisomerase II (Homo sapiens, UniProt P11388); test: Topoisomerase II DNA cleavage/relaxation assay, supercoiled plasmid DNA, EB gel (TopoGEN protocol); assay type: biochemical; conditions: for action on topoisomerase II: compared with VP-16 (etoposide); for concentration at which topoisomerase II poisoning (DNA cleavage induction) is observed: supercoiled plasmid DNA, linear cleavage products
Chain of topoisomerase II (P11388 whole entry): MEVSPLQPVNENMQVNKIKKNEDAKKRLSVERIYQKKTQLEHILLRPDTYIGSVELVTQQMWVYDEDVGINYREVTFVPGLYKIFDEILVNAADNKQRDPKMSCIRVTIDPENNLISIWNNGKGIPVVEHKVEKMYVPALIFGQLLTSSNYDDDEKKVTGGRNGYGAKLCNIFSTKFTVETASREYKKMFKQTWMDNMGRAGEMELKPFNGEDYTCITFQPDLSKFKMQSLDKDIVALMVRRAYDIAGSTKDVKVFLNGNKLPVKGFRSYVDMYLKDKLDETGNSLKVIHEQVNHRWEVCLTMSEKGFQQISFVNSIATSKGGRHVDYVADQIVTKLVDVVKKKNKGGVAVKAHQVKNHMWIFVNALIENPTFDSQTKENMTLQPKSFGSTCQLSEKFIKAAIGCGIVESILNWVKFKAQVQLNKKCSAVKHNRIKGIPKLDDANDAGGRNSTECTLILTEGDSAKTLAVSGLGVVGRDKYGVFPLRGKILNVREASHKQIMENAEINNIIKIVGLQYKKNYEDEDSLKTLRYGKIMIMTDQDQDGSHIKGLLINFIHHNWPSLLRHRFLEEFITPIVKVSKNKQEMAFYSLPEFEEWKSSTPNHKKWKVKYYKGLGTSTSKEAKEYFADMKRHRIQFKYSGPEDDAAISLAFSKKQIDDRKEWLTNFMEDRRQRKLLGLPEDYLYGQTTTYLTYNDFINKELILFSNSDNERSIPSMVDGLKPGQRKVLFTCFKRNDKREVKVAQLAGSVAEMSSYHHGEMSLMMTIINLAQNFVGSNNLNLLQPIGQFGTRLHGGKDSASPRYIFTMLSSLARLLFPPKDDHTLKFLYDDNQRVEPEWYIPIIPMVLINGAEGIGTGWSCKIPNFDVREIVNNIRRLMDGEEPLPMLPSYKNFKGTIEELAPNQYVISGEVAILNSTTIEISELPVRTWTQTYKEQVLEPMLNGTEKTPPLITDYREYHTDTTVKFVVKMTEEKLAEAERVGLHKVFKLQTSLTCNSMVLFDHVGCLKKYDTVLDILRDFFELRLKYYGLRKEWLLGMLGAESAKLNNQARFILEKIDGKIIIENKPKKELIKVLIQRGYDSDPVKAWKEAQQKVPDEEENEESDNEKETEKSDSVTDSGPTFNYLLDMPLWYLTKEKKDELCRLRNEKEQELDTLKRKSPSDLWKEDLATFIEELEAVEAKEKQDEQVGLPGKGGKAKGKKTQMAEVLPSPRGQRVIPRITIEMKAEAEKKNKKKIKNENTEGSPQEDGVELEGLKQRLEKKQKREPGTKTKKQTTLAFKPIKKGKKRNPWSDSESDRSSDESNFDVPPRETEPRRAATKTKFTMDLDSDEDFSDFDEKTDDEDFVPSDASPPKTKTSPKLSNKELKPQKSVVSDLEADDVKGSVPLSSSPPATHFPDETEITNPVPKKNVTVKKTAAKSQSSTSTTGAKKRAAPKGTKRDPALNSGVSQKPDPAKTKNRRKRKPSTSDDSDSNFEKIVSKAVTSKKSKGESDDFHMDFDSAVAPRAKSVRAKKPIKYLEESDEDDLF
Experimental: The compound MA_AuPr clearly targets topoisomerase II if the statistical analysis of the NCI data for a range of drugs shown in FIG. 13 is correct. MA_AuPr was therefore assayed for its action against topoisomerase II in vitro using TopoGEN's standard protocol over a wide range of test agent concentrations (0.005 to 500 μM) in order to obtain direct experimental proof for the apparent cellular target of the compound to ensure that a fundamental understanding of the mechanism of action of this new class of Au(III) compounds exists. These experiments were performed by the company TopoGEN and at the University of Central Florida. The DNA cleavage experiments were performed in vitro using purified topoisomerase I and II enzymes and supercoiled plasmid DNA as the substrate. The controls that were used in the experiment were linear marker DNA as well as reactions without the gold(III) complex and high concentrations of VP16. The compound VP16 (etoposide) is a commercially available DNA intercalator chemotherapeutic agent, widely used in the treatment of lung and testicular cancers as well as lymphomas. The choice of VP16 as a control is based on the fact that it is a poor topoisomerase II inhibitor, but is a powerful topoisomerase II poison which arrests the enzyme's cycle at the ternary drug-enzyme-DNA cleavage complex stage, leading to observation of linear DNA fragments upon SDS denaturation of the enzyme (i.e., work-up). Comparison of the VP16 results with the results of MA_AuPr would therefore give a good indication of whether the gold(III) chelate is an inhibitor or a poison.
Lane 1 of the gel (FIG. 14) is the control experiment with only supercoiled plasmid DNA present. The control contains no topoisomerase II and so the DNA supercoiled structure cannot be relaxed, as the topoisomerase II enzyme would usually do. […] At a higher concentration of the test agent (50 μM), both supercoiled plasmid DNA and linear cleavage products are observed. […] At very high concentrations (>500 μM), MA_AuPr behaves exclusively as a catalytic inhibitor of the enzyme.
The role of gold(III) in the efficacy of the compound was determined by modifying the structure of MA_AuPr by replacing the Au(III) cation with Pd(II) to afford MA_PdPr (the isoelectronic square planar coordination complex of known structure and geometry^31) and carrying out the DNA relaxation assay with topoisomerase II as before. The metal-free ligand (MA_H2PrLig) was tested under identical conditions to confirm that the mechanism of action is related to the intact structure of the metal chelate.

calf thymus DNA = test: Calf-thymus DNA titration (absorption hypochroism); assay type: binding; conditions: MA series: pH 7.0 phosphate buffer at 37° C.
Experimental: FIG. 20 is a graph of the titration of MA_AuPr (1.1a) with calf-thymus DNA in aqueous pH 7 phosphate buffer at 37° C.
The hypochroism of the absorption band of the complex at 383 nm was monitored as a function of added ctDNA. […] Ka is the equilibrium binding constant in M^−1, Ct is the total Au(III) complex concentration, and s is the binding site size.

human cancer cell lines = test: Cytotoxicity summary (NCI-60 or independent cytotoxicity screen), Scheme 19; assay type: cell-based
[1] = tested on: 60 human cancer cell lines; conditions: cited from earlier work; for GI50 / CC50 / IC50: mean over 60 cell lines; for CC50: read-out: LC50, 50% cell death; for IC50: read-out: TGI or IC50, total growth inhibition
[2] = tested on: 60 human cancer cell lines; test: NCI-60 five-dose screen, mean cytotoxicity over 60 human cancer cell lines; assay type: cell-based
Experimental: The gold(III) complexes of this invention were screened by the National Cancer Institute (NCI, USA) against their panel of 60 different human cancer cell lines. These screens initially entail a one-dose test for the compound at a high concentration (10 μM; e.g. FIGS. 5, 6 and 7). Compounds with a good cytotoxicity profile in the one-dose screen are then subjected to a five-dose screen for the full panel of sixty human cancer cell lines (the so-called 5-dose NCI-60 screen). In the full five-dose screen, the compound concentration is varied in five doses from 10^−8 M to 10^−4 M in order to establish a dose-response function of percentage cell growth versus the concentration of the test agent. […] Similar data will shortly be available for compounds 1.1Y^1b and 1.5Y^1a as these derivatives are in 5-dose screens currently at the NCI.
The mean cytotoxicity data summarized in Scheme 7 were compiled over 60 human cancer cell lines from the NCI database. […] The dose-response curves for the bis(pyrrolide-imine) chelates of the invention are steeper, or harder, than those of all the compounds compared in Scheme 7.

[3] = HepG2 cytotoxicity / cell health parameters; assay type: cell-based, human; conditions: human
Excerpt: (§1) The data for MA_AuPr in Scheme 22 are consistent with a cytotoxic compound capable of inducing apoptosis (programmed cell death) and, indeed, a compound that performs better than the control drug. […] Other cell health parameters which respond are a loss of total cells per well (indicating toxicity due to necrosis, apoptosis or a reduction in cellular proliferation), an increase in nuclear area (indicating necrosis or G2 cell cycle arrest), an increase in cytochrome c release (implying activation of a signalling cascade leading to apoptosis). The latter is particularly relevant as we may rule out cell death by necrosis in the case of MA_AuPr. The mechanism of action of the compound thus leads to cell cycle arrest in the G2 phase and the induction of apoptosis (highly desirable for an anticancer drug). […] Since the compound induces cytochrome c release, cytotoxicity involves apoptosis.

[4] = tested on: HepG2 human hepatocellular carcinoma cells; test: HepG2 cytotoxicity / cell health parameters; assay type: cell-based; conditions: human
Excerpt: as §1

[5] = comparison drugs, NCI database, 50% growth inhibition

Papp A→B at 2 h, 10 µM (in vitro; Caco-2): 37 ×10⁻⁶ cm/s
Papp B→A at 2 h, 10 µM (in vitro; Caco-2): 8 ×10⁻⁶ cm/s
efflux ratio at 2 h, 10 µM (in vitro; Caco-2): 0.2
Structure (SMILES): CC(=O)CC(c1ccccc1)c1c(O)c2ccccc2oc1=O (stereo not shown) [Warfarin]

Structure (SMILES): C(=NCCCN=Cc1ccc[n-]1)c1ccc[n-]1.[Pd+2] [MA_PdPr]
weaker effect than the gold(III) complex (topoisomerase II; DNA-cleavage induction in presence of topoisomerase II): 100 fold
action on topoisomerase II (topoisomerase II): diminished activity
concentration at which topoisomerase II poisoning (DNA cleavage induction) is observed (topoisomerase II): 50 µM

Structure (SMILES): ClC1C[N+]2=Cc3ccc[n]3[Au-]23[n]2cccc2C=[N+]3C1.F[P-](F)(F)(F)(F)F [MA_AuCl, 2,2′-{(2-chloropropane-1,3-diyl)bis[nitrilo(E)methylylidene]}bis(pyrrol-1-ido)gold(III) hexafluorophosphate(V)]
Ka (calf thymus DNA) (calf thymus DNA): 3.91(7) × 10^5 M^−1
Cytotoxicity (human cancer cell lines): active

Structure (SMILES): Cl.Cl.[Cl][Au-]12[n+]3ccccc3-c3cccc([n+]31)-c1cccc[n+]12 [(Au^III(terpy)Cl]Cl2]
GI50 [1, 5]: 0.13 µM
CC50 ([1]; comparison drugs, NCI database): 73 µM
IC50 ([1]; comparison drugs, NCI database): 11 µM

Structure (SMILES): CC1(C)C[N+]2=Cc3ccc[n]3[Au-]23[n]2cccc2C=[N+]3C1.[Cl-] [MA_AuDM, 2,2′{(2,2-dimethylpropane-1,3-diyl)bis[nitrilo(E)methyl-ylidene]}bis(pyrrol-1-ido)gold(III) chloride]
fraction of cancer cell lines equivalently or more susceptible than to cisplatin ([2]; 60 human cancer cell lines): around 12%
CC50 ([2]; mean over 60 human cancer cell lines, 50% cell death, read-out: LC50 (the source's name)): 72 µM
GI50 ([2]; mean over 60 human cancer cell lines, 50% growth inhibition): 12 µM
TGI (concentration for total growth inhibition) ([2]; mean over 60 human cancer cell lines, 100% (total) growth inhibition, read-out: TGI or IC50): 31 µM
growth inhibition activity relative to cisplatin, on average ([2]; plot of −log(GI50/M) versus cisplatin, FIG. 10): 91%
Ka (calf thymus DNA) (calf thymus DNA): 1.63(3) × 10^5 M^−1
Cytotoxicity (human cancer cell lines): active

Structure (SMILES): CCOC1C[N+]2=Cc3ccc[n]3[Au-]23[n]2cccc2C=[N+]3C1.F[P-](F)(F)(F)(F)F [MA_AuOEt, 2,2{(2-ethoxypropane-1,3-diyl)bis[nitrilo(E)methylylidene]}bis(pyrrol-1-ido)gold(III) hexafluorophosphate(V)]
Ka (calf thymus DNA) (calf thymus DNA): 1.01(4) × 10^6 M^−1
Cytotoxicity (human cancer cell lines): active

Structure (SMILES): CN(C)CCCN1c2ccccc2Sc2ccc(Cl)cc21 [Chlorpromazine, reference compound]
AC50 ([3]; Cell Loss AC50): 7.8 µM
AC50 ([3]; Cytochrome C release AC50): 16 µM
AC50 ([3]; DNA structure AC50): 196 µM
AC50 ([3]; Membrane permeability AC50): 30 µM
AC50 ([3]; Mitochondrial mass AC50): 5.4 µM
AC50 ([3]; Mitochondrial membrane potential AC50): 50 µM
AC50 ([3]; Nuclear Area AC50): 100 µM
Cell Loss MEC [4]: 100 µM
Cytochrome C release MEC [4]: 11 µM
DNA structure MEC [4]: 11 µM
Mitochondrial mass MEC [4]: 3.7 µM
Mitochondrial membrane potential MEC [4]: 3.7 µM
Nuclear Area MEC [4]: >11 µM

Structure (SMILES): CO[C@@]12[C@H](COC(N)=O)C3=C(C(=O)C(C)=C(N)C3=O)N1C[C@@H]1N[C@@H]12 [Mitomycin]
GI50 [1, 5]: 0.71 µM
IC50 ([1]; comparison drugs, NCI database): 6.5 µM

Structure (SMILES): CC[C@@]1(O)C(=O)OCc2c1cc1n(c2=O)Cc2cc3ccccc3nc2-1 [Camptothecin]
increase in concentration from 50% growth inhibition to 50% cell kill ([2]; on average over the full 60 cell lines): 825 fold
GI50 ([1]; comparison drug): 0.04 µM
GI50 [1, 5]: 0.04 µM
CC50 ([1]; comparison drugs, NCI database): 33 µM
IC50 ([1]; comparison drugs, NCI database): 0.89 µM

Structure (SMILES): C(=NCCCN=Cc1ccc[nH]1)c1ccc[nH]1 [MA_H2PrLig]
action on topoisomerase II (topoisomerase II): inactivity
concentration at which topoisomerase II poisoning (DNA cleavage induction) is observed (topoisomerase II): 500 µM

Papp A→B at 2 h, 10 µM (in vitro): 0.7 ×10⁻⁶ cm/s
Papp B→A at 2 h, 10 µM (in vitro): 2.3 ×10⁻⁶ cm/s
efflux ratio at 2 h, 10 µM (in vitro): 3.3
Structure (SMILES): CNC(=C[N+](=O)[O-])NCCSCc1ccc(CN(C)C)o1 [Ranitidine]

Structure (SMILES): O=NN(CCCl)C(=O)NCCCl [carmustine]
mean −log(GI50) ([1]; selected human cancer cell lines, data not shown): 4.20
